According to PMC9326877 (Journal of Food and Drug Analysis, 2018):

Molecular target: P-glycoprotein (P-gp) (Sus scrofa, UniProt K7GMM7)
Assay type: in vitro ADME, pig (Sus scrofa domesticus)
Details: Landrace, pig

P-glycoprotein (P-gp), sequence (K7GMM7 1-1248): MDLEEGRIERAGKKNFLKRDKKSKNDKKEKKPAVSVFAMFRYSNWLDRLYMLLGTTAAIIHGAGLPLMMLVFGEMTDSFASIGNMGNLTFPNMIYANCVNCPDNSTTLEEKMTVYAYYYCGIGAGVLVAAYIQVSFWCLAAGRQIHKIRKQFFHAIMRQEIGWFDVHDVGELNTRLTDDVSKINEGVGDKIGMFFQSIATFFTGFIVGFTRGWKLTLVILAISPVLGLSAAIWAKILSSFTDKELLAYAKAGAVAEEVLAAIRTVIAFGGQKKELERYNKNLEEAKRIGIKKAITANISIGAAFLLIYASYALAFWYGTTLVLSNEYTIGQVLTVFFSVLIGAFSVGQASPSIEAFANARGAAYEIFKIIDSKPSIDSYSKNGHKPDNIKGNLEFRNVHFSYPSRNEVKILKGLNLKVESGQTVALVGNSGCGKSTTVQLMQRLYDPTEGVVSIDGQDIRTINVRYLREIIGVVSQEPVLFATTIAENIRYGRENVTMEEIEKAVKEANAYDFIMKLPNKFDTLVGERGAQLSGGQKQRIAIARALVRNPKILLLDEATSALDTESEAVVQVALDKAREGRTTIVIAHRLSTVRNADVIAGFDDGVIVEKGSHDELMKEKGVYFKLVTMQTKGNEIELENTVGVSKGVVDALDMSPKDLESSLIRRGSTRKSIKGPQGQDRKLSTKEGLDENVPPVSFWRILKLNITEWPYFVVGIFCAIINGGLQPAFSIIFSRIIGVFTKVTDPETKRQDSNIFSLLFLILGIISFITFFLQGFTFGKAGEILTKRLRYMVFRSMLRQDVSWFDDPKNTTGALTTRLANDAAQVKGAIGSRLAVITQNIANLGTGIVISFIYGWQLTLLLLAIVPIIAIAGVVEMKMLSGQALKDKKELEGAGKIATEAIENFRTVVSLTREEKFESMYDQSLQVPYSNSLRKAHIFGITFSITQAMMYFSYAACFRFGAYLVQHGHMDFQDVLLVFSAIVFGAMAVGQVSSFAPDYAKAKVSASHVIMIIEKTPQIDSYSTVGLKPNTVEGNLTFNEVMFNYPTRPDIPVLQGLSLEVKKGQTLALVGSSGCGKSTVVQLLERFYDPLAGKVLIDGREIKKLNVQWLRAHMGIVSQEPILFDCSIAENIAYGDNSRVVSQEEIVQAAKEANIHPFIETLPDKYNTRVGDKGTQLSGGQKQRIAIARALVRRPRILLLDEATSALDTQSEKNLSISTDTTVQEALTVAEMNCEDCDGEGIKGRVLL

efflux ratio at 120 min, 5 μM: 2.2
Structure (SMILES): COC(=O)c1ccccc1-c1c2ccc(=N)cc-2oc2cc(N)ccc12 [R123, Rhodamine 123]
